Data on two compounds can be found in PMC7880690, “Chemical genetics and proteome-wide site mapping reveal cysteine MARylation by PARP-7 on immune-relevant protein targets” (eLife, 2021).

Assay [1] deals with T1, IG-PARP-12 (I660G PARP-12) (Homo sapiens, UniProt Q9H0J9, I660G).
T1 construct: GFP; expressed in transfected cells
Put plainly: Labeling by orthogonal NAD+ analogs with PARP-12 I660G mutant. It is filed as biochemical. The settings on record: compared to 5-Bn-6-a-NAD+. An excerpt:
Figure 1. A chemical genetic strategy for identifying the direct MARylation targets of PARP-7. (a) Schematic of chemical genetic approach for identifying direct targets of PARP-7. (b) Crystal structure of human PARP1 bound to the non-hydrolyzable NAD^+ analog benzamide adenine dinucleotide (BAD). PDB: 6bhv. […] (c) Chemical structure of the clickable, orthogonal NAD^+ analogs. 5-Bn-2-e-NAD^+ is the optimized substrate for the floor position engineered PARP-7, IG-PARP-7. 5-Bn-6-a-NAD^+ was used in our previous studies by other floor position engineered PARPs (e.g. PARP14). (d) 5-Bn-2-e-NAD^+ is an efficient substrate for IG-PARP-7. HEK293T cells were transfected with either GFP-WT-PARP-7 (control) or GFP-IG-PARP-7. Cell lysates were prepared and incubated with either 5-Bn-2-e-NAD^+ or 5-Bn-6-a-NAD^+ (100 µM). Following copper-catalyzed click chemistry with biotin-azide, proteins were resolved by SDS-PAGE and biotinylated proteins were detected by Western blot detection using Streptavidin-HRP. Biotinylated proteins represent direct MARylation targets of PARP-7. Figure 1—figure supplement 1. Enrichment of PARP-7 MARylation targets and labeling of PARP-12 IG targets using a chemical genetic approach. (a) Labeling of PARP-7 MARylation targets was performed as described in Figure 1. Neutravidin agarose was used to enrich biotinylated proteins (i.e. MARylation targets). […]

The next assay deals with T2, PARP8FL (Homo sapiens, UniProt Q8N3A8).
T2 sequence (Q8N3A8 1-854): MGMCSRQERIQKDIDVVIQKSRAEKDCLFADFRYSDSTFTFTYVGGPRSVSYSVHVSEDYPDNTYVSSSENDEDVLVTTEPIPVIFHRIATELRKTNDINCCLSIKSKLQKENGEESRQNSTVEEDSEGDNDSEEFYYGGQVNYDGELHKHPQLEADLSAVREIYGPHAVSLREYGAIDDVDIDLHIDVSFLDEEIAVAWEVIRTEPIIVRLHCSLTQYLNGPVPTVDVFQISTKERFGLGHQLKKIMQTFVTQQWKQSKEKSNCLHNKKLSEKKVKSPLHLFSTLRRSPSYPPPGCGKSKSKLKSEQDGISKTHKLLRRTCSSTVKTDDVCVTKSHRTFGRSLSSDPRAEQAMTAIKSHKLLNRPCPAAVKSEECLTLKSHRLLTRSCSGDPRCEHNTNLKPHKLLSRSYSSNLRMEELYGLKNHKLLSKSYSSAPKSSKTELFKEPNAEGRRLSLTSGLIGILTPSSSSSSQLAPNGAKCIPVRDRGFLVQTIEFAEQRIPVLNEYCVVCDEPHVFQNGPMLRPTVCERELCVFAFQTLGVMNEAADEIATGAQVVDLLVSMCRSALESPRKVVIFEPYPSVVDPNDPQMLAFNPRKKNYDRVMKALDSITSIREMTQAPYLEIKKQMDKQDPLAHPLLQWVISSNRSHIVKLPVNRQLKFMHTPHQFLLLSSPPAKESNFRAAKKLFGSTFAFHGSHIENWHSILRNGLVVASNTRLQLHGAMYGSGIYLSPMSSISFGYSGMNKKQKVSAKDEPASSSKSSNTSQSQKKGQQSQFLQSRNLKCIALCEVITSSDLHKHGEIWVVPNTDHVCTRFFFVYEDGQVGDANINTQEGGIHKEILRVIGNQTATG
Put plainly: ADP-ribosylation plate assay, PARP8FL.

For the next assay, the target named is T3, PARP5bcat (Homo sapiens, UniProt Q9H2K2).
T3 construct: PARP5bcat
Put plainly: ADP-ribosylation plate assay, PARP5bcat. Type of assay: biochemical. As to conditions: in vitro plate assay; ± SEM, at least two biological replicates.

The target in a further assay is T4, PARP15cat (Homo sapiens, UniProt Q460N3).
T4 sequence (Q460N3 482-678 limits assumed): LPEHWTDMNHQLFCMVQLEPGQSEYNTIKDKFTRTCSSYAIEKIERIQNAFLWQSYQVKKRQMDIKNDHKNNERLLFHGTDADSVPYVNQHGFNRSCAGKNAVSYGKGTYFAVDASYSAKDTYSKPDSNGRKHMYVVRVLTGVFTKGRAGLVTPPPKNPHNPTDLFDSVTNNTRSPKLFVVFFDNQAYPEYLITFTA
Put plainly: ADP-ribosylation plate assay, PARP15cat.

A further assay addresses PARP1FL (Homo sapiens, UniProt P09874). Put plainly: ADP-ribosylation plate assay, PARP1FL.
In another assay the target is T5, PARP3FL (Homo sapiens, UniProt Q9Y6F1).
T5 sequence (Q9Y6F1 1-533): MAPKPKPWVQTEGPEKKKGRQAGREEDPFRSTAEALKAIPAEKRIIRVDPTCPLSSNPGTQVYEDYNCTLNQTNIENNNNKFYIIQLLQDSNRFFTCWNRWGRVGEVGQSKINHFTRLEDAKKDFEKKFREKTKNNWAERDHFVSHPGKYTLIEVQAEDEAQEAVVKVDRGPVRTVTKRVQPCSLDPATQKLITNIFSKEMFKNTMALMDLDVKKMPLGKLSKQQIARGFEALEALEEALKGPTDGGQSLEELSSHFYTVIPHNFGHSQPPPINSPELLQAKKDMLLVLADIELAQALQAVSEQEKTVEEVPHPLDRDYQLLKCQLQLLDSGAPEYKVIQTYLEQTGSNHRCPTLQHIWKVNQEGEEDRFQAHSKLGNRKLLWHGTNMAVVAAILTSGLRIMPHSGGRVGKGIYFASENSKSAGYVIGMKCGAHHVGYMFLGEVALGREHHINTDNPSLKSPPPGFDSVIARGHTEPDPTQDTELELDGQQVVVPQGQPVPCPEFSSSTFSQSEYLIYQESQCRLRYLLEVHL
Put plainly: ADP-ribosylation plate assay, PARP3FL.

T3 sequence (Q9H2K2 959-1164): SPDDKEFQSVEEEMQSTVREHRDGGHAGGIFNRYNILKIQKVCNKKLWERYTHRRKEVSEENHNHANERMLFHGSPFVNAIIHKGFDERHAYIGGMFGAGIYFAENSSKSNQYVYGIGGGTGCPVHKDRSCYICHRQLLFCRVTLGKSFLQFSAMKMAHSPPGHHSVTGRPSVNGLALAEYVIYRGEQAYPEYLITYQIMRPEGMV
PARP1FL, sequence (P09874 whole entry): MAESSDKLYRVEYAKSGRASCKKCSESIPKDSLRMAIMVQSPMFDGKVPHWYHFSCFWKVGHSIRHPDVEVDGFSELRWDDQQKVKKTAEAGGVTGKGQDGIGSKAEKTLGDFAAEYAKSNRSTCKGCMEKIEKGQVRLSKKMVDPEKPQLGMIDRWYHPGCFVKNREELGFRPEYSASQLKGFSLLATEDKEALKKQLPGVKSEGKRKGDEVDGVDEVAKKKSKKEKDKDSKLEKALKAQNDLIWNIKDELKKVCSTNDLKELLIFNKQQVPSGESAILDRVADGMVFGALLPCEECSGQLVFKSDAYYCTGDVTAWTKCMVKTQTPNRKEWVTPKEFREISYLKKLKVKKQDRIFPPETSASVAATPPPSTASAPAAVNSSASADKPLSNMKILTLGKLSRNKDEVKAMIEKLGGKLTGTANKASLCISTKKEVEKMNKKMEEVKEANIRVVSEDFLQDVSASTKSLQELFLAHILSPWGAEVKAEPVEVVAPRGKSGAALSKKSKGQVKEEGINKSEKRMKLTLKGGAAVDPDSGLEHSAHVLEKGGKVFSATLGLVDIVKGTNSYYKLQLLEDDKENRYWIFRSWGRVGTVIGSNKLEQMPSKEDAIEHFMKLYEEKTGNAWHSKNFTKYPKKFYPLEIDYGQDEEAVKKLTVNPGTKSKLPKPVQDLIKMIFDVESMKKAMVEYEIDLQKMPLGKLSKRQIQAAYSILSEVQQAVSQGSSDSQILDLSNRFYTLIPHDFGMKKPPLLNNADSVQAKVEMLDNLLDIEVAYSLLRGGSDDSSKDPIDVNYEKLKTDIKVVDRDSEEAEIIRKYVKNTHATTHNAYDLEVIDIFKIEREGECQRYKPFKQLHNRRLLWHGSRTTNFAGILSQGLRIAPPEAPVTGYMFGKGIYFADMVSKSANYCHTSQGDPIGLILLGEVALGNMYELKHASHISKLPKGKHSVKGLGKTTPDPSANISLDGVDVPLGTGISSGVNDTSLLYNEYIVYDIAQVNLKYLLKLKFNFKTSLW
T1 sequence (Q9H0J9 whole entry I660G): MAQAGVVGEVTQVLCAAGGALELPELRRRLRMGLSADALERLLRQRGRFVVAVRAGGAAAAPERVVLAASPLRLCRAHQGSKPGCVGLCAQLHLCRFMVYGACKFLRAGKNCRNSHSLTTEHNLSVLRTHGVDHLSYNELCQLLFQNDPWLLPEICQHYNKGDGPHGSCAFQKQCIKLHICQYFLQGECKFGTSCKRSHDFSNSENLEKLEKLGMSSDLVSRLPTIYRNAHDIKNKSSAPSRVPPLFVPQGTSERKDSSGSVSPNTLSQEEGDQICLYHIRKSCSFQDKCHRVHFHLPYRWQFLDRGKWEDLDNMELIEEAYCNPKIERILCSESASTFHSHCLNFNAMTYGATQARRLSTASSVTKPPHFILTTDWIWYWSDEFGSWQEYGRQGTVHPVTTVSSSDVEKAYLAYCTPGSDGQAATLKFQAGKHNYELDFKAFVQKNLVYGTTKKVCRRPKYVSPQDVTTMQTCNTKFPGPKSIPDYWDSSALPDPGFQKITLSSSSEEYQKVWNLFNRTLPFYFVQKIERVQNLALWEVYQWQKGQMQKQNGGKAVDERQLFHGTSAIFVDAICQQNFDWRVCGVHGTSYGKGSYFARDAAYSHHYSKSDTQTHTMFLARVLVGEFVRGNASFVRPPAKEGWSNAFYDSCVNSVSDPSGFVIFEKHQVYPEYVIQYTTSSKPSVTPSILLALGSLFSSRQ

As to `C#Cc1nc(N)c2ncn(C3OC(COP(=O)(O)OP(=O)([O-])OCC4OC([n+]5cc(Cc6ccccc6)cc(C(N)=O)c5)C(O)C4O)C(O)C3O)c2n1` (stereo not drawn) [5-Bn-2-e-NAD^+, 5-benzyl-2-ethynyl-NAD^+], in assay [1], the “substrate for IG-PARP-12” value is on record as “better substrate”.

As for `N#Cc1ccc(N2CCN(C(=O)c3cc(Cc4n[nH]c(=O)c5ccccc45)ccc3F)CC2)nc1` [Phthal01, 6-(4-(2-fluoro-5-((4-oxo-3,4-dihydrophthalazin-1-yl)methyl)benzoyl)piperazin-1-yl)nicotinonitrile], the IC50 against PARP8FL came to 4700 ± 1000 nM; at PARP5bcat, 2520 ± 200 nM; against PARP15cat, 2000 ± 300 nM; against PARP1FL it was 21 nM; at PARP3FL, 320 ± 2 nM.

By IC50 is commonly meant the concentration needed to halve the response being measured. High values mean a need for much substance, low ones inhibition by little substance.
